Several values for one entry are separate records, joined by “and”; a condition that tells them apart may be missing. Identical values can stand only once. Inconclusive results and toxic doses are left out.

The values that follow come from PubChem BioAssay AID256 (DTP/NCI, 2004).

The subject of this assay is CD2F1 mice, L1210 leukemia ip, survival T/C. As to the kind of experiment: NCI In Vivo Anticancer Drug Screen. Data for tumor model L1210 Leukemia (intraperitoneal) in CD2F1 (CDF1) mice. Particulars: higher = longer survival. In a few lines: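 Transplantable tumor in mice; compound-treated vs vehicle-treated groups. Read-out = treated/control ratio of the measured endpoint.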

The mark [1] stands for this setting: endpoint: mean survival time, dose: 100.0 mg/kg/injection, schedule: Q04DX003 (ip), vehicle: saline sonified.
Where [2] appears, read: endpoint: mean survival time, dose: 200.0 mg/kg/injection, schedule: Q04DX003 (ip), vehicle: saline sonified.
The mark [3] stands for this setting: endpoint: mean survival time, dose: 400.0 mg/kg/injection, schedule: Q04DX003 (ip), vehicle: saline sonified.
Where [4] appears, read: endpoint: mean survival time, dose: 100.0 mg/kg/injection, schedule: Q04DX003 (ip), vehicle: saline with Tween-80.
The mark [5] stands for this setting: endpoint: mean survival time, dose: 200.0 mg/kg/injection, schedule: Q04DX003 (ip), vehicle: saline with Tween-80.
Setting [6] is: endpoint: mean survival time, dose: 400.0 mg/kg/injection, schedule: Q04DX003 (ip), vehicle: saline with Tween-80.
Setting [7] is: endpoint: mean survival time, dose: 100.0 mg/kg/injection, schedule: Q01DX001 (ip), vehicle: saline.
Where [8] appears, read: endpoint: mean survival time, dose: 200.0 mg/kg/injection, schedule: Q01DX001 (ip), vehicle: saline.
Setting [9] is: endpoint: mean survival time, dose: 400.0 mg/kg/injection, schedule: Q01DX001 (ip), vehicle: saline.
Setting [10] is: endpoint: mean survival time, dose: 12.5 mg/kg/injection, schedule: Q01DX009 (ip), vehicle: saline.
Setting [11] is: endpoint: mean survival time, dose: 50.0 mg/kg/injection, schedule: Q01DX009 (ip), vehicle: saline.
Where [12] appears, read: endpoint: mean survival time, dose: 100.0 mg/kg/injection, schedule: Q01DX009 (ip), vehicle: saline.
Where [13] appears, read: endpoint: mean survival time, dose: 100.0 mg/kg/injection, schedule: Q04DX002 (ip), vehicle: saline with Tween-80.
Setting [14] is: endpoint: mean survival time, dose: 50.0 mg/kg/injection, schedule: Q01DX009 (ip), vehicle: saline with Tween-80.
[15] abbreviates: endpoint: mean survival time, dose: 100.0 mg/kg/injection, schedule: Q01DX009 (ip), vehicle: saline with Tween-80.
[16] abbreviates: endpoint: mean survival time, dose: 200.0 mg/kg/injection, schedule: Q01DX009 (ip), vehicle: saline with Tween-80.

As to `COc1cc2c(oc(=O)c3cc(C)cc(OC)c32)c2c(C3OC(C)C(O)C(C)(O)C3O)ccc(O)c12` (stereo not drawn), the T/C is 109 % of control and 110 % of control (endpoint: median survival time, dose: 3.12 mg/kg/injection, schedule: Q01DX005 (ip), vehicle: DMSO); 108 % of control and 110 % of control (endpoint: median survival time, dose: 6.25 mg/kg/injection, schedule: Q01DX005 (ip), vehicle: DMSO); 121 % of control and 103 % of control and 109 % of control (endpoint: median survival time, dose: 12.5 mg/kg/injection, schedule: Q01DX005 (ip), vehicle: DMSO); 113 % of control and 118 % of control and 109 % of control (endpoint: median survival time, dose: 25.0 mg/kg/injection, schedule: Q01DX005 (ip), vehicle: DMSO); 116 % of control and 112 % of control (endpoint: median survival time, dose: 50.0 mg/kg/injection, schedule: Q01DX005 (ip), vehicle: DMSO); 121 % of control (endpoint: median survival time, dose: 100.0 mg/kg/injection, schedule: Q01DX005 (ip), vehicle: DMSO).
With `ClCCOCCOc1ccc(C2CCCCC2)cc1`, the T/C by setting is: under setting [1], 97 % of control; under setting [2], 97 % of control; under setting [3], 92 % of control.
`CCOC(=O)c1ccc(NC(=S)NC(=O)c2ccc(Cl)cc2Cl)cc1`: the T/C runs as follows: under setting [4], 100 % of control; under setting [5], 91 % of control; under setting [6], 91 % of control.
As to `O=c1cc[nH]c(=O)n1C1OC(CO)C(O)C1O` (stereo not drawn), the T/C runs as follows: (endpoint: mean survival time, dose: 100.0 mg/kg/injection, schedule: Q01DX005 (ip), vehicle: saline) 104 % of control; (endpoint: mean survival time, dose: 200.0 mg/kg/injection, schedule: Q01DX005 (ip), vehicle: saline) 113 % of control.
Regarding `O=C(Nc1ccccc1)Oc1ccc2ccccc2c1`, the T/C under setting [7] was 96 % of control, the T/C under setting [8] is 94 % of control and the T/C under setting [9] was 97 % of control.
For the molecule `O=C(C[n+]1ccccc1Cc1ccccc1)c1ccccc1`, the T/C is, setting by setting: (endpoint: mean survival time, dose: 25.0 mg/kg/injection, schedule: Q04DX003 (ip), vehicle: saline with Tween-80) 93 % of control; (endpoint: mean survival time, dose: 50.0 mg/kg/injection, schedule: Q04DX003 (ip), vehicle: saline with Tween-80) 96 % of control; under setting [4], 101 % of control.
Turning to `Cc1cn(C2CC(O)C(CO)O2)c(=O)[nH]c1=O` (stereo not drawn), the T/C is, setting by setting: under setting [10], 95 % of control and 104 % of control; (endpoint: mean survival time, dose: 25.0 mg/kg/injection, schedule: Q01DX009 (ip), vehicle: saline) 91 % of control and 103 % of control; under setting [11], 91 % of control and 104 % of control; under setting [12], 98 % of control; (endpoint: mean survival time, dose: 200.0 mg/kg/injection, schedule: Q01DX009 (ip), vehicle: saline) 95 % of control and 103 % of control; (endpoint: mean survival time, dose: 250.0 mg/kg/injection, schedule: Q03HX008 (ip), vehicle: saline) 102 % of control. The T/C runs as follows: (endpoint: mean survival time, dose: 400.0 mg/kg/injection, schedule: Q01DX009 (ip), vehicle: saline) 92 % of control; (endpoint: mean survival time, dose: 500.0 mg/kg/injection, schedule: Q03HX008 (ip), vehicle: saline) 110 % of control; (endpoint: mean survival time, dose: 1000.0 mg/kg/injection, schedule: Q03HX008 (ip), vehicle: saline) 102 % of control.
On to `O=[N+]([O-])c1ccc(Oc2ccc(S(=O)(=O)O)cc2)cc1`, for which the T/C is 95 % of control (endpoint: mean survival time, dose: 25.0 mg/kg/injection, schedule: Q04DX002 (ip), vehicle: saline with Tween-80); 103 % of control (endpoint: mean survival time, dose: 50.0 mg/kg/injection, schedule: Q04DX002 (ip), vehicle: saline with Tween-80); 91 % of control under setting [13].
With `CCCCC(CC)C(O)CC(O)CC` (stereo not drawn), the T/C runs as follows: under setting [4], 92 % of control; under setting [5], 91 % of control; under setting [6], 91 % of control.
For the molecule `CCOc1c(Cl)cc(Cl)cc1C(c1ccc(Cl)cc1S(=O)(=O)O)c1cc(Cl)cc(Cl)c1OCC`, the T/C is, setting by setting: (endpoint: mean survival time, dose: 25.0 mg/kg/injection, schedule: Q01DX009 (ip), vehicle: saline with Tween-80) 98 % of control; under setting [14], 89 % of control; under setting [15], 86 % of control.
In the case of `O=c1oc(-c2ccc3c(c2)OCO3)nc2ccccc12`, the T/C is, setting by setting: under setting [4], 91 % of control; under setting [5], 87 % of control.
Take `COCC1=Nc2c(ncnc2SCc2ccccc2)NN1`: the T/C (endpoint: mean survival time, dose: 100.0 mg/kg/injection, schedule: Q01DX001 (ip), vehicle: other) is 95 % of control.
On to `CC(C)NS(=O)(=O)c1ccccc1`, for which the T/C was 97 % of control under setting [4], 96 % of control under setting [5] and 99 % of control under setting [6].
Taken in the same sequence, the figures for `CC(=O)Nc1ccc2oc(=O)ccc2c1` were 101 % of control, 101 % of control and 101 % of control.
Turning to `NC(=O)c1ccc([N+](=O)[O-])cc1Cl`, the T/C under setting [13] is 102 % of control; the T/C (endpoint: mean survival time, dose: 200.0 mg/kg/injection, schedule: Q04DX002 (ip), vehicle: saline with Tween-80) is 94 % of control; the T/C (endpoint: mean survival time, dose: 400.0 mg/kg/injection, schedule: Q04DX002 (ip), vehicle: saline with Tween-80) is 94 % of control.
In the case of `CCCCN(CCCC)CCCN(CCCOS(C)(=O)=O)CCCOS(C)(=O)=O`, the T/C (endpoint: mean survival time, dose: 12.0 mg/kg/injection, schedule: Q01DX001 (ip), vehicle: saline) is 110 % of control; the T/C under setting [10] was 121 % of control; the T/C (endpoint: mean survival time, dose: 12.5 mg/kg/injection, schedule: Q04DX003 (ip), vehicle: saline) was 110 % of control; the T/C (endpoint: mean survival time, dose: 25.0 mg/kg/injection, schedule: Q01DX001 (ip), vehicle: saline) was 114 % of control; the T/C (endpoint: mean survival time, dose: 25.0 mg/kg/injection, schedule: Q04DX003 (ip), vehicle: saline) is 117 % of control; the T/C under setting [11] was 162 % of control. The T/C reads like this: under setting [12], 102 % of control; (endpoint: mean survival time, dose: 100.0 mg/kg/injection, schedule: Q04DX003 (ip), vehicle: saline) 160 % of control; under setting [8], 90 % of control.
On to `C=C/C(C)=N/Nc1ccc([N+](=O)[O-])cc1[N+](=O)[O-]`, for which the T/C was 94 % of control under setting [4], 95 % of control under setting [5] and 95 % of control under setting [6].
Turning to `CC(C)(C)N(Cc1ccccc1)Cc1ccccc1`, the T/C was 102 % of control under setting [15]; 98 % of control under setting [16]; 101 % of control (endpoint: mean survival time, dose: 400.0 mg/kg/injection, schedule: Q01DX009 (ip), vehicle: saline with Tween-80).
As to `O=C(CCl)Nc1cccc2c1CCCC2`, the T/C was 97 % of control under setting [14]; 94 % of control under setting [15]; 98 % of control under setting [4]; 91 % of control under setting [16]; 96 % of control under setting [5].
In the case of `CSc1nc2cc(S(=O)(=O)O)ccc2s1`, the T/C was 103 % of control under setting [1], 97 % of control under setting [2] and 89 % of control under setting [3].
Turning to `Nc1ccc(Cl)cc1N`, the T/C is, setting by setting: (endpoint: mean survival time, dose: 25.0 mg/kg/injection, schedule: Q01DX009 (ip), vehicle: other) 96 % of control; (endpoint: mean survival time, dose: 50.0 mg/kg/injection, schedule: Q01DX009 (ip), vehicle: other) 102 % of control; (endpoint: mean survival time, dose: 75.0 mg/kg/injection, schedule: Q01DX009 (ip), vehicle: other) 107 % of control; (endpoint: mean survival time, dose: 100.0 mg/kg/injection, schedule: Q01DX009 (ip), vehicle: other) 106 % of control; (endpoint: mean survival time, dose: 150.0 mg/kg/injection, schedule: Q01DX009 (ip), vehicle: other) 112 % of control.
In the case of `CCOC(=O)Nc1cc(NCCCCc2ccccc2)c([N+](=O)[O-])c(N)n1`, the T/C reads like this: (endpoint: mean survival time, dose: 12.5 mg/kg/injection, schedule: Q01DX001 (ip), vehicle: Klucel (hydroxypropylcellulose) (HPC)) 97 % of control; (endpoint: mean survival time, dose: 25.0 mg/kg/injection, schedule: Q01DX001 (ip), vehicle: Klucel (hydroxypropylcellulose) (HPC)) 103 % of control; (endpoint: mean survival time, dose: 50.0 mg/kg/injection, schedule: Q01DX001 (ip), vehicle: Klucel (hydroxypropylcellulose) (HPC)) 89 % of control.
`O=c1nc(-c2ccco2)sc(=O)[nH]1`: the T/C is, setting by setting: (endpoint: median survival time, dose: 25.0 mg/kg/injection, schedule: Q01DX009 (ip), vehicle: Klucel (hydroxypropylcellulose) (HPC)) 100 % of control; (endpoint: median survival time, dose: 50.0 mg/kg/injection, schedule: Q01DX009 (ip), vehicle: Klucel (hydroxypropylcellulose) (HPC)) 106 % of control; (endpoint: median survival time, dose: 100.0 mg/kg/injection, schedule: Q01DX009 (ip), vehicle: Klucel (hydroxypropylcellulose) (HPC)) 96 % of control; (endpoint: median survival time, dose: 200.0 mg/kg/injection, schedule: Q01DX009 (ip), vehicle: Klucel (hydroxypropylcellulose) (HPC)) 102 % of control.
For `O=C(O)c1cc(C(=O)O)c(-c2ccccc2)c(-c2ccccc2)c1`, the T/C by setting is: under setting [7], 97 % of control; under setting [8], 97 % of control; under setting [9], 101 % of control.
